Data from patent US10752588B2 (The Broad Institute, Inc., priority 2014, dated 2020).
Converted amounts (≈) assume the structure as drawn.

Key:
[1] = target: T1, human D2R/β-arrestin (Homo sapiens (Human), UniProt P14416); experiment: β-Arrestin agonist assay (PathHunter); type: cell-based; settings: CHO-K1 cell line expressing human D2R/β-arrestin
Summary of the method: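 Readout follows addition of Buffer:Emerald II:Galactor-Star reagent (19:5:1) to agonist-treated plates, measured as luminescence or fluorescence.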

[2] = target: T1, human D2R/β-arrestin; experiment: Gi/cAMP agonist assay (Lance Ultra cAMP, Forskolin); type: cell-based; settings: CHO-K1 cell line expressing human D2R/β-arrestin
Summary of the method: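 Read-out was Lance Ultra competitive TR-FRET (Eu-cAMP tracer plus ULight-anti-cAMP) following forskolin-induced cAMP production. Before forskolin stimulation, compounds were pin-transferred onto the seeded cells for 10 min at 37 °C.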

[3] = system: Caco2; experiment: Caco2 permeability; type: in vitro ADME; parameters: unit not given beside the values; settings: for Caco2 A-B: A-B direction; for Caco2 B-A: B-A direction
[4] = Solubility in PBS; type: physicochemical; settings: aqueous buffer
[5] = Plasma protein binding, human; type: in vitro ADME; settings: plasma, read-out: Plasma Protein Binding % bound
[6] = Plasma protein binding, mouse; type: in vitro ADME; settings: plasma, read-out: Plasma Protein Binding % bound
[7] = Plasma stability, human; type: in vitro ADME
[8] = Microsomal stability, human; type: in vitro ADME
[9] = Microsomal stability, rat; type: in vitro ADME
[10] = target: D2 (Homo sapiens (Human), UniProt P14416); experiment: D2 radioligand binding assay
[11] = target: T1, human D2R/β-arrestin; settings: CHO-K1 cell line expressing human D2R/β-arrestin, β-arrestin and Gi/cAMP pathways, FIG. 1
Protocol: (§1) The detection reagents are then added, and the read-out is detected.
(§2) Cells were prepared for assays by growing cultures for up to 2 weeks (from about 6-20 passages). A vial of frozen cells was thawed in a water bath held at 37° C. The cells were then transferred into a 50 ml tube with 10 ml growth media. The vial was rinsed with growth media and the contents transferred to the 50 ml tube. The 50 ml tube was centrifuged at 1200 rpm for 5 minutes at room temperature. […] When the cells reached about 90% confluence (approximately 3 days between passages), the cells were passaged and used for either the agonist or antagonist assays as described below.
(§3) The cells were prepared for β-arrestin assays as described above. The assays were performed using a PathHunter® β-Arrestin Detecting Kit (DiscoveRX). The cells were grown on 225 mm dishes, then washed once with 1×PBS (Cellgro), followed by digestion with 2.5 ml 1× Detachment reagent (DRX 92-0009) for approximately 2 minutes.

[12] = target: T1, human D2R/β-arrestin; experiment: cell-based; settings: β-arrestin Antagonist, CHO-K1 cell line expressing human D2R/β-arrestin; quinpirole used as agonist
Protocol: as §1, §2, §3

[13] = target: T1, human D2R/β-arrestin; experiment: cell-based; settings: cAMP Antagonist, CHO-K1 cell line expressing human D2R/β-arrestin; quinpirole used as agonist
[14] = Plasma stability, mouse
[15] = Microsomal stability, mouse
[16] = Plasma protein binding, rat; type: in vitro ADME; settings: plasma, read-out: Plasma Protein Binding % bound
[17] = Plasma stability, rat; type: in vitro ADME
[18] = system: plasma protein; experiment: Plasma protein binding, human; type: in vitro ADME; settings: plasma, read-out: Plasma Protein Binding % bound
[19] = system: plasma protein; experiment: Plasma protein binding, mouse; type: in vitro ADME; settings: plasma, read-out: Plasma Protein Binding % bound
[20] = system: plasma protein; experiment: Plasma protein binding, rat; type: in vitro ADME; settings: plasma, read-out: Plasma Protein Binding % bound
[21] = system: MDR1-MDCKII; experiment: MDR1-MDCKII permeability assay; type: in vitro ADME
Text: MDR1-MDCKII Permeability Assay
This is a standard permeability assay that predicts brain penetration. It was ran by the CRO Absorption Systems (www.absorption.com/drug-discovery/permeability/cell-based/).

T1 sequence (P14416 whole entry): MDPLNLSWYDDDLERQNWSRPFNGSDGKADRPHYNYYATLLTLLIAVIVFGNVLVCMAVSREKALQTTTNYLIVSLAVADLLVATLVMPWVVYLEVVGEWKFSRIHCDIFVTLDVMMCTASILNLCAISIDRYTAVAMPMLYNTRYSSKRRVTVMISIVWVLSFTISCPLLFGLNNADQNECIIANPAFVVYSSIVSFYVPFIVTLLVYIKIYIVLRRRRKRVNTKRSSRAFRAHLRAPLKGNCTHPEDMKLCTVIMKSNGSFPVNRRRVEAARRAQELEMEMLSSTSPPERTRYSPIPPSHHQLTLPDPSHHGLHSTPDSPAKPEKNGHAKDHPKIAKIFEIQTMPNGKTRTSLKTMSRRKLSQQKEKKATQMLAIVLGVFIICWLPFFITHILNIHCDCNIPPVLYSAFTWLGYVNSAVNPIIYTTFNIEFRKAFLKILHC
D2, sequence (P14416 whole entry): as above

| SMILES | EC50 [1] [µM] | EC50 [2] [µM] | Caco2 A-B [3] | Caco2 B-A [3] | solubility [4] [µM] | fraction unbound [5] | fraction unbound [6] | Plasma Stability: % remaining after 5 hours [7] | Microsomal Stability: % remaining after 60 minutes [8] [%] | Microsomal Stability: % remaining after 60 minutes [9] [%] | Ki [10] [µM] | IC50 [12] [µM] | IC50 [13] [µM] | Plasma Stability: % remaining after 5 hours [14] | Microsomal Stability: % remaining after 60 minutes [15] | fraction unbound [16] | Plasma Stability: % remaining after 5 hours [17] | also measured |
| --- | --- | --- | --- | --- | --- | --- | --- | --- | --- | --- | --- | --- | --- | --- | --- | --- | --- | --- |
| O=C(NC(c1ccc(Cl)cc1)c1ccccn1)C1CCN(CCOc2ccccc2)CC1 (stereo not shown) [Compound 63, N-((4-chlorophenyl)(pyridin-2-yl)methyl)-1-(2-phenoxyethyl)piperidine-4-carboxamide] | > 30 | 0.1 to 1 | 25.1 | 19.9 | 476 (≈ 214 µg/mL) | 0.037 | 0.026 | 94.5% | 58 | 55 | 0.1 to 1 | 0.1 to 1 | > 30 | 93.4% | 37% | – | – | functional profile at D2R (antagonist mode) [11]: representative β-arrestin biased D2R antagonists |
| O=C(NC(c1ccccn1)C1CCCCC1)C1CCN(CCOc2ccccc2)CC1 (stereo not shown) [Compound 37, N-(cyclohexyl(pyridin-2-yl)methyl)-1-(2-phenoxyethyl)piperidine-4-carboxamide] | > 30 | > 30 | – | – | 197 (≈ 83.1 µg/mL) | 0.047 | 0.051 | 100% | 71 | 28 | – | 0.1 to 1 | 1 to 10 | 98% | 31% | 0.024 | 100% | – |
| O=C(NC(c1ccc(Cl)cc1)c1cccnc1)C1CCN(CCOc2ccccc2)CC1 (stereo not shown) [Compound 111, N-((4-chlorophenyl)(pyridin-3-yl)methyl)-1-(2-phenoxyethyl)piperidine-4-carboxamide] | > 30 | 0.1 to 1 | – | – | – | 0.053 | 0.027 | 100% | 60 | 51 | – | 0.1 to 1 | > 30 | 100% | 39% | 0.022 | 98% | – |
| O=C(NC(c1ccc(Cl)cc1)c1ccccn1)C1CCN(CCOc2ccc(F)cc2F)CC1 (stereo not shown) [Compound 115, N-((4-chlorophenyl)(pyridin-2-yl)methyl)-1-(2-(2,4-difluorophenoxy)ethyl)piperidine-4-carboxamide] | > 30 | 0.1 to 1 | 30.4 | 11.5 | 220 (≈ 107 µg/mL) | 0.008 | 0.015 | 91.2% | 63 | 77 | – | 1 to 10 | > 30 | 86.2% | 26% | 0.005 | 98.0% | – |
| O=C(NC(c1ccc(Cl)cc1)c1ccccn1)C1CCN(CCOc2ccccc2Cl)CC1 (stereo not shown) [Compound 66, 1-(2-(2-chlorophenoxy)ethyl)-N-((4-chlorophenyl)(pyridin-2-yl)methyl)piperidine-4-carboxamide] | > 30 | 10 to 30 | 15.1 | 2.4 | 10.5 (≈ 5.09 µg/mL) | 0.007 | 0.008 | 99.7% | 46 | 35 | 0.1 to 1 | < 0.1 | < 0.1 | 100% | 7% | 0.006 | 88.1% | – |
| O=C(NC(c1ccc(Cl)cc1)c1ccccn1)C1CCN(CCCc2ccccc2)CC1 (stereo not shown) [Compound 18, N-((4-chlorophenyl)(pyridin-2-yl)methyl)-1-(3-phenylpropyl)piperidine-4-carboxamide] | > 30 | 0.1 to 1 | – | – | 352 (≈ 158 µg/mL) | 0.046 | 0.056 | 94.9% | 78 | 55 | – | 1 to 10 | > 30 | 90.5% | 43% | 0.027 | 93.2% | – |
| O=C(NC(c1ccc(F)cc1)c1ccccn1)C1CCN(CCOc2ccccc2)CC1 (stereo not shown) [Compound 25] | > 30 | 10 to 30 | 33.7 | 50.5 | 452 (≈ 196 µg/mL) | – | – | 100% | 93 | 100 | 1 to 10 | 1 to 10 | 10 to 30 | 97% | 76% | – | 94.5% | fraction unbound [18]: 0.08; fraction unbound [19]: 0.047; fraction unbound [20]: 0.03 |
| Clc1ccc(C(NCC2CCN(CCOc3ccccc3)CC2)c2ccccn2)cc1 (stereo not shown) [Compound 114, 1-(4-chlorophenyl)-N-((1-(2-phenoxyethyl)piperidin-4-yl)methyl)-1-(pyridin-2-yl)methanamine] | > 30 | > 30 | – | – | – | 0.014 | 0.023 | h100, m100, r100% | 63 | 20 | 0.1 to 1 | 0.1 to 1 | < 0.1 | h100, m100, r100% | 6% | 0.005 | h100, m100, r100% | – |
| COc1cccc(C(NC(=O)C2CCN(CCOc3ccccc3)CC2)c2ccccc2)c1 (stereo not shown) [Compound 146, N-((3-methoxyphenyl)(phenyl)methyl)-1-(2-phenoxyethyl)piperidine-4-carboxamide] | > 30 | > 30 | – | – | – | 0.022 | 0.04 | 98% | 56 | 27 | – | 1 to 10 | 1 to 10 | 96% | 36% | 0.021 | 88% | – |
| CN(CC1CCN(CCOc2ccccc2)CC1)C(c1ccc(Cl)cc1)c1ccccn1 (stereo not shown) [Compound 79, 1-(4-chlorophenyl)-N-methyl-N-((1-(2-phenoxyethyl)piperidin-4-yl)methyl)-1-(pyridin-2-yl)methanamine] | > 30 | < 0.1 | – | – | – | – | – | – | – | – | 0.1 to 1 | 0.1 to 1 | > 30 | – | m0% | – | – | MDR1-MDCKII A-B ([21]; A-B direction): 6.17; MDR1-MDCKII B-A ([21]; B-A direction): 22.1; functional profile at D2R (antagonist mode) [11]: representative β-arrestin biased D2R antagonists |
| O=C(NC(c1ccncc1)c1ccc(Cl)cc1)C1CCN(CCOc2ccccc2)CC1 (stereo not shown) [Compound 112, N-((4-chlorophenyl)(pyridin-4-yl)methyl)-1-(2-phenoxyethyl)piperidine-4-carboxamide] | > 30 | < 0.1 | – | – | 19 (≈ 8.55 µg/mL) | 0.064 | 0.05 | 100% | 52 | 53 | – | 1 to 10 | > 30 | 95% | 29% | 0.02 | 95% | – |
